# Test results as given in US7132252B2, “Methods for detecting the interaction of compounds with cytochrome P450 using optical molecular sensors” (Invitrogen Corporation, priority 1998, dated 2006).
# “And” between values parts separate entries of the source, which are not always exact repeats. Equal entries are not always repeated.
# Columns and labels:
# CYP2C9 = CYP2C9 (Homo sapiens, UniProt P11712); test: Kinetic properties of fluorogenic substrates with CYP 2C9; format: biochemical; conditions: for v (1.25 uM): turnover rate at 1.25 uM substrate; for v (1.25 uM) / v (10 uM) / Km / kcat: — = too low to quantify; for v (10 uM): turnover rate at 10 uM substrate
# Sequence of CYP2C9 (P11712 whole entry): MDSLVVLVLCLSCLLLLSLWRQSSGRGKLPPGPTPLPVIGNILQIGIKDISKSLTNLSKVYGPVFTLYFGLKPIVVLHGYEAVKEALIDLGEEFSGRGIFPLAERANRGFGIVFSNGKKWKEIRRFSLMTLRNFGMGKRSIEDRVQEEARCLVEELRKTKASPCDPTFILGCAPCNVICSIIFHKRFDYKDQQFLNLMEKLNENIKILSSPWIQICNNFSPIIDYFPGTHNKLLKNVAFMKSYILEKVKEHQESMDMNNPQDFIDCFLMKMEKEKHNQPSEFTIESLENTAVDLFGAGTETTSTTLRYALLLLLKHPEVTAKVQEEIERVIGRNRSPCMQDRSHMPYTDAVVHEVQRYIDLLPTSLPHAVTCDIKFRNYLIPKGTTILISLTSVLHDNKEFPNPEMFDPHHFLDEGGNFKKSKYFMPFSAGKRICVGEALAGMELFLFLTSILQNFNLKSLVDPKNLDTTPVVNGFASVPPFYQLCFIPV
# CYP 2B6 = biological target: T1, CYP 2B6 (Homo sapiens, UniProt P20813); test: Kinetic properties of fluorogenic substrates with CYP 2B6; format: biochemical; conditions: for v (1.25 uM): turnover rate at 1.25 uM substrate; for v (1.25 uM) / v (10 uM) / Km / kcat: — = too low to quantify; for v (10 uM): turnover rate at 10 uM substrate
# T1 sequence (P20813 1-491): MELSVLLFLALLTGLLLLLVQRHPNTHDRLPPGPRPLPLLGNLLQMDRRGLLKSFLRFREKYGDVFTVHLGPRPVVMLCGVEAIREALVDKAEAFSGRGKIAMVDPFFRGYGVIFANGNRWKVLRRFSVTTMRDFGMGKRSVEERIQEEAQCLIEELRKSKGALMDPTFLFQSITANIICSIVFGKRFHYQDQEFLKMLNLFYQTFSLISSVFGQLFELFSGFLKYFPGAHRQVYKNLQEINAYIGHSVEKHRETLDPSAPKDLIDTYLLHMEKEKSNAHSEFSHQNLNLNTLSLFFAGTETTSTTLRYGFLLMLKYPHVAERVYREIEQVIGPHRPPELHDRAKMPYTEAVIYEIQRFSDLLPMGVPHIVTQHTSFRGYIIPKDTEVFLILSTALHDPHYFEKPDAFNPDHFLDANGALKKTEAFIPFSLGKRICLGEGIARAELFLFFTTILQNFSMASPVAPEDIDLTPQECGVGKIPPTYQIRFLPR
# CYP2D6 = CYP2D6 (Homo sapiens, UniProt P10635); test: Kinetic properties of fluorogenic substrates with CYP 2D6; format: biochemical; conditions: for v (1.25 uM): turnover rate at 1.25 uM substrate; for v (10 uM): turnover rate at 10 uM substrate
# Sequence of CYP2D6 (P10635 whole entry): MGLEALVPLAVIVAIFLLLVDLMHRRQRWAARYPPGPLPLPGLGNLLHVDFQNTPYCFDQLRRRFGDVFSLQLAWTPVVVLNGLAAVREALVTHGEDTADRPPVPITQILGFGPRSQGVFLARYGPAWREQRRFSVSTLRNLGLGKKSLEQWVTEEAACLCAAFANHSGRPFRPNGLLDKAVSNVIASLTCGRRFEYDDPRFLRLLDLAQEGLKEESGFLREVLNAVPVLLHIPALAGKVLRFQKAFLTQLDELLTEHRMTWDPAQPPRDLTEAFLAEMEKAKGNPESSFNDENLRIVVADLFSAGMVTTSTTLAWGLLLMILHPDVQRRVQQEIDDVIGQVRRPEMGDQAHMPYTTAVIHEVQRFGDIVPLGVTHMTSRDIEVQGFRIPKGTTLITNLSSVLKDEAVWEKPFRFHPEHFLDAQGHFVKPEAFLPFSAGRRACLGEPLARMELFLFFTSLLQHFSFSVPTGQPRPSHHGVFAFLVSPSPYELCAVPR
# Excerpt: (§1) (respectively, MFC and MR).
# CYP2C19 = CYP2C19 (Homo sapiens, UniProt P33261); test: Kinetic properties of fluorogenic substrates with CYP 2C19; format: biochemical; conditions: for v (1.25 uM): turnover rate at 1.25 uM substrate; for v (1.25 uM) / v (10 uM): — = too low to quantify; for v (10 uM): turnover rate at 10 uM substrate
# Sequence of CYP2C19 (P33261 whole entry): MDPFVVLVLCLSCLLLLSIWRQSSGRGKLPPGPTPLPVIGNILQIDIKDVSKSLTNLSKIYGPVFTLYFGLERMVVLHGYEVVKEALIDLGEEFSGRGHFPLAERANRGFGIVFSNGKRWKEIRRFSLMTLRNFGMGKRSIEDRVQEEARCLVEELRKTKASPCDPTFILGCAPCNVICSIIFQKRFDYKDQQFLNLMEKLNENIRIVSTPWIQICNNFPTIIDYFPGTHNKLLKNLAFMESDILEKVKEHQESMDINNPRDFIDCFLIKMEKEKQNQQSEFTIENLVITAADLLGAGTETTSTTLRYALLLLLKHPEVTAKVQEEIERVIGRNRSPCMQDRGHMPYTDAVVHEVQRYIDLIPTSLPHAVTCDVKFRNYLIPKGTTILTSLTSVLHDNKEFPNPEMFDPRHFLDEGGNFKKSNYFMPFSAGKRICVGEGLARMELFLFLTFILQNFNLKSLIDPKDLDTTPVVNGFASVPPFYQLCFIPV
# CYP 1A2 = biological target: T2, CYP 1A2 (Homo sapiens, UniProt P05177); test: Kinetic properties of fluorogenic substrates with CYP 1A2; format: biochemical
# T2 sequence (P05177 1-516): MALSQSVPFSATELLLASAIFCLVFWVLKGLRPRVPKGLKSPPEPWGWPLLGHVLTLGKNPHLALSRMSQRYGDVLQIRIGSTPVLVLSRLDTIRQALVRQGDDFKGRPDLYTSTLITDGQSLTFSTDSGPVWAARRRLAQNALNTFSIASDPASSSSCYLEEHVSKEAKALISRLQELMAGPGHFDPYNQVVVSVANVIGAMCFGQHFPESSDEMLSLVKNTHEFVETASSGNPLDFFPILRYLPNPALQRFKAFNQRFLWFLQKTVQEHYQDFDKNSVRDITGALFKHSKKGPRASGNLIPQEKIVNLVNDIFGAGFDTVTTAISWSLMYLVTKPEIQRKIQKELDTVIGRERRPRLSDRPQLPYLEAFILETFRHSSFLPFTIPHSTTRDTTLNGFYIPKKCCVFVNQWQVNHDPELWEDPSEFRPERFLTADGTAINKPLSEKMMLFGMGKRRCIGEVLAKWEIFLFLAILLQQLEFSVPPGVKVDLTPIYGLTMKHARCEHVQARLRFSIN
# CYP3A4 [1] = biological target: T3, CYP3A4 (Homo sapiens, UniProt P08684); test: Kinetic properties of fluorogenic substrates with CYP 3A4; format: biochemical; conditions: for v (1.25 uM): turnover rate at 1.25 uM substrate; for v (1.25 uM) / v (10 uM): — = too low to quantify; for v (10 uM): turnover rate at 10 uM substrate
# T3 sequence (P08684 whole entry): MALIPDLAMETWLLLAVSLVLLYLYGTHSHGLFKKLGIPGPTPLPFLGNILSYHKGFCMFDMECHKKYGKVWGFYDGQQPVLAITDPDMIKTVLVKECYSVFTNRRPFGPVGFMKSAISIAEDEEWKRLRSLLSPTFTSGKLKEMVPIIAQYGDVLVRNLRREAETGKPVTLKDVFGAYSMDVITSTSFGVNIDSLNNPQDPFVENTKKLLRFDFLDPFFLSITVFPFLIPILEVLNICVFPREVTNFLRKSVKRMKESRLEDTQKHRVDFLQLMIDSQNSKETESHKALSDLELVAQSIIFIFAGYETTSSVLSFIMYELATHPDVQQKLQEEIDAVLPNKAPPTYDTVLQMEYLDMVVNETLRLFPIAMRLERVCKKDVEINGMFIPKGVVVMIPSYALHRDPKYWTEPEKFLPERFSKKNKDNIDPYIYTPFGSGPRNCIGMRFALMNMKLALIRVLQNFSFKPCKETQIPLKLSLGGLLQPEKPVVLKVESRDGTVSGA
# Excerpt: For further understanding these terms in the context of this invention, attention is directed to FIG. 4 and the analysis of FIG. 4.
# as §1
# CYP3A4 [2] = biological target: T3, CYP3A4; test: in vitro; conditions: pH 8, % inhibition; for inhibition at 20 min, 10 µM: Condition A; for inhibition at 40 min, 10 µM: Condition B
compound,measurement,setting,value
"7-Methoxy-4-trifluoromethylcoumarin [MFC, reference compound]",type of kinetics,CYP2C9,Michaelis-Menten
same,v (1.25 uM),CYP2C9,0.01 min⁻¹
same,v (10 uM),CYP2C9,0.03 min⁻¹
same,Km,CYP2C9,103 µM
same,kcat,CYP2C9,0.0067 s⁻¹
same,type of kinetics,CYP 2B6,Michaelis-Menten
same,v (1.25 uM),CYP 2B6,1.63 min⁻¹
same,v (10 uM),CYP 2B6,2.53 min⁻¹
same,Km,CYP 2B6,1.4 µM
same,kcat,CYP 2B6,0.0483 s⁻¹
same,type of kinetics,CYP2D6,Michaelis-Menten
same,v (1.25 uM),CYP2D6; — = too low to quantify,0.03 min⁻¹
same,v (10 uM),CYP2D6; — = too low to quantify,0.10 min⁻¹
same,Km,CYP2D6; — = too low to quantify,10 µM
same,kcat,CYP2D6; — = too low to quantify,0.005 s⁻¹
"CCOc1ccc2cc(C#N)c(=O)oc2c1 [3CEC, 3-Cyano-7-ethoxycoumarin, reference compound]",type of kinetics,CYP2C19,Michaelis-Menten
same,v (1.25 uM),CYP2C19,0.05 min⁻¹
same,v (10 uM),CYP2C19,0.34 min⁻¹
same,type of kinetics,CYP 1A2,Michaelis-Menten
same,v (1.25 uM),CYP 1A2; turnover rate at 1.25 uM substrate,1.73 min⁻¹
same,v (10 uM),CYP 1A2; turnover rate at 10 uM substrate,12.55 min⁻¹
"COc1ccc2cc(C#N)c(=O)oc2c1 [3CMC, 3-cyano-7-methoxycoumarin, reference compound]",type of kinetics,CYP2C19,linear
same,v (1.25 uM),CYP2C19,0.01 min⁻¹
same,v (10 uM),CYP2C19,0.07 min⁻¹
same,type of kinetics,CYP2C9,linear
same,v (1.25 uM),CYP2C9,0.00 min⁻¹
same,v (10 uM),CYP2C9,0.04 min⁻¹
"N#Cc1cc2ccc(OCc3ccccc3)cc2oc1=O [BCC, 7-Benzyloxy-3-cyanocoumarin, reference compound]",type of kinetics,CYP2C19,Michaelis-Menten
same,v (1.25 uM),CYP2C19,0.02 min⁻¹
same,v (10 uM),CYP2C19,0.06 min⁻¹
same,v (1.25 uM),CYP2C9,0.00 min⁻¹
same,v (10 uM),CYP2C9,0.00 min⁻¹
same,type of kinetics,CYP 2B6,Michaelis-Menten
same,Km,"CYP 2B6; human, CYP 2B6 isozyme",1.3 µM
same,v (1.25 uM),CYP 2B6,0.04 min⁻¹
same,v (10 uM),CYP 2B6,0.07 min⁻¹
same,kcat,CYP 2B6,0.0017 s⁻¹
"O=c1cc(C(F)(F)F)c2ccc(OCc3ccccc3)cc2o1 [BFC, 7-Benzyloxy-4-trifluoromethylcoumarin, reference compound]",type of kinetics,CYP3A4 [1],linear
same,v (1.25 uM),CYP3A4 [1],0.04 min⁻¹
same,v (10 uM),CYP3A4 [1],0.81 min⁻¹
CC1(C)C2=C(Cl)C(=O)C(Cl)=CC2=Nc2ccc(OCOCc3ccccc3)cc21 [BOM-DDAO],v (1.25 uM),CYP3A4 [1],0.4402 min⁻¹
same,v (10 uM),CYP3A4 [1],4.2041 min⁻¹
O=C(OCc1ccccc1)c1c2oc3cc(OCc4ccccc4)ccc3nc-2ccc1=O [BRCBE],v (1.25 uM),CYP3A4 [1],0.1992 min⁻¹
same,v (10 uM),CYP3A4 [1],0.6241 min⁻¹
CCN(CC)Cc1cc(=O)oc2cc(OC)ccc12 [DMMC],v (1.25 uM),CYP2C19,0.03 min⁻¹
same,v (10 uM),CYP2C19,0.23 min⁻¹
O=C1NC(=O)C(c2ccccc2)(c2ccccc2)N1 [Diphenylhydantoin],"inhibition at 20 min, 10 µM",CYP3A4 [2]; substrate BOMCC,-11%
same,"inhibition at 40 min, 10 µM",CYP3A4 [2]; substrate BOMCC,21%
same,"inhibition at 20 min, 10 µM",CYP3A4 [2]; substrate BOMR,-27%
same,"inhibition at 40 min, 10 µM",CYP3A4 [2]; substrate BOMR,24%
same,"inhibition at 20 min, 10 µM",CYP3A4 [2]; substrate DBOMF,21%
same,"inhibition at 40 min, 10 µM",CYP3A4 [2]; substrate DBOMF,5%
CCOCOc1ccc2nc3ccc(=O)cc-3oc2c1 [EOMR],type of kinetics,CYP3A4 [1],Michaelis-Menten
same,v (1.25 uM),CYP3A4 [1],0.03 min⁻¹
same,v (10 uM),CYP3A4 [1],0.10 min⁻¹
CC(C)Oc1ccc2cc(C#N)c(=O)oc2c1 [IPCC],v (1.25 uM),CYP2C19,0.027 min⁻¹
same,v (10 uM),CYP2C19,0.232 min⁻¹
same,v (1.25 uM),CYP2D6; — = too low to quantify,0.0076 min⁻¹
same,v (10 uM),CYP2D6; — = too low to quantify,0.0378 min⁻¹
NNC(=O)c1ccncc1 [Isoniazid],"inhibition at 20 min, 10 µM",CYP3A4 [2]; substrate BOMCC,59%
same,"inhibition at 40 min, 10 µM",CYP3A4 [2]; substrate BOMCC,48%
same,"inhibition at 20 min, 10 µM",CYP3A4 [2]; substrate BOMR,-8%
same,"inhibition at 40 min, 10 µM",CYP3A4 [2]; substrate BOMR,30%
same,"inhibition at 20 min, 10 µM",CYP3A4 [2]; substrate DBOMF,-9%
same,"inhibition at 40 min, 10 µM",CYP3A4 [2]; substrate DBOMF,3%
"COc1ccc(COc2ccc3nc4ccc(=O)cc-4oc3c2)cc1 [MOBR, Paramethoxybenzylresorufin]",type of kinetics,CYP2C19,not MMK
same,v (1.25 uM),CYP2C19,1.26 min⁻¹
same,v (10 uM),CYP2C19,0.69 min⁻¹
same,type of kinetics,CYP2C9,Michaelis-Menten
same,v (1.25 uM),CYP2C9,0.02 min⁻¹
same,v (10 uM),CYP2C9,0.02 min⁻¹
same,type of kinetics,CYP 2B6,Michaelis-Menten
same,Km,"CYP 2B6; human, CYP 2B6 isozyme",0.01 µM
same,v (1.25 uM),CYP 2B6,0.08 min⁻¹
same,v (10 uM),CYP 2B6,0.10 min⁻¹
same,kcat,CYP 2B6,0.0067 s⁻¹
same,type of kinetics,CYP2D6,Michaelis-Menten
same,v (1.25 uM),CYP2D6; — = too low to quantify,0.0185 min⁻¹ and 0.02 min⁻¹
same,v (10 uM),CYP2D6; — = too low to quantify,0.0409 min⁻¹ and 0.04 min⁻¹
COCOc1ccc2cc(C#N)c(=O)oc2c1 [MOMCC],type of kinetics,CYP2C19,Michaelis-Menten
same,v (1.25 uM),CYP2C19,0.14 min⁻¹
same,v (10 uM),CYP2C19,0.38 min⁻¹
same,type of kinetics,CYP2C9,Michaelis-Menten
same,v (1.25 uM),CYP2C9,0.01 min⁻¹
same,v (10 uM),CYP2C9,0.07 min⁻¹
"COCOc1ccc2c(C(F)(F)F)cc(=O)oc2c1 [MOMFC, 7-Methyloxymethyloxy-4-trifluorocoumarin]",type of kinetics,CYP2C9,Michaelis-Menten
same,v (1.25 uM),CYP2C9,0.00 min⁻¹
same,v (10 uM),CYP2C9,0.07 min⁻¹
same,Km,CYP2C9,14.9 µM
same,kcat,CYP2C9,0.0017 s⁻¹
same,type of kinetics,CYP 2B6,notMichaelis-Menten
same,v (1.25 uM),CYP 2B6,0.54 min⁻¹
same,v (10 uM),CYP 2B6,0.71 min⁻¹
COCOc1ccc2nc3ccc(=O)cc-3oc2c1 [MOMR],v (1.25 uM),CYP3A4 [1],0.0083 min⁻¹
same,v (10 uM),CYP3A4 [1],0.0338 min⁻¹
same,v (1.25 uM),CYP2C19,0.06 min⁻¹
same,v (10 uM),CYP2C19,0.062 min⁻¹
same,v (1.25 uM),CYP2D6; — = too low to quantify,0.03396 min⁻¹
same,v (10 uM),CYP2D6; — = too low to quantify,0.2146 min⁻¹
O=C1CN(/N=C/c2ccc([N+](=O)[O-])o2)C(=O)N1 [Nitrofurantoin],"inhibition at 20 min, 10 µM",CYP3A4 [2]; substrate BOMCC,44%
same,"inhibition at 40 min, 10 µM",CYP3A4 [2]; substrate BOMCC,33%
same,"inhibition at 20 min, 10 µM",CYP3A4 [2]; substrate BOMR,-19%
same,"inhibition at 40 min, 10 µM",CYP3A4 [2]; substrate BOMR,27%
same,"inhibition at 20 min, 10 µM",CYP3A4 [2]; substrate DBOMF,-9%
same,"inhibition at 40 min, 10 µM",CYP3A4 [2]; substrate DBOMF,-3%
CCCCCCCCOCOc1ccc2cc(C#N)c(=O)oc2c1 [OOMCC],v (1.25 uM),CYP3A4 [1],0.2274 min⁻¹
same,v (10 uM),CYP3A4 [1],0.961 min⁻¹
same,v (1.25 uM),CYP2C19,0.179 min⁻¹
same,v (10 uM),CYP2C19,1.043 min⁻¹
C=CCOc1ccccc1OCC(O)CNC(C)C (stereo not shown) [Oxprenolol],"inhibition at 20 min, 10 µM",CYP3A4 [2]; substrate BOMCC,7%
same,"inhibition at 40 min, 10 µM",CYP3A4 [2]; substrate BOMCC,21%
same,"inhibition at 20 min, 10 µM",CYP3A4 [2]; substrate BOMR,-5%
same,"inhibition at 40 min, 10 µM",CYP3A4 [2]; substrate BOMR,13%
same,"inhibition at 20 min, 10 µM",CYP3A4 [2]; substrate DBOMF,1%
same,"inhibition at 40 min, 10 µM",CYP3A4 [2]; substrate DBOMF,3%
